Measurements taken from PMC8152350, “High cytotoxicity of betulin towards fish and murine fibroblasts: Is betulin safe for nonneoplastic cells?” (BMC Veterinary Research, 2021).
“And” between values parts separate entries of the source, which are not always exact repeats. Equal entries are not always repeated.

What was measured:
NIH/3T3 cells = test: MTT assay (mitochondrial activity), murine fibroblasts
Method: NIH/3T3 (ATCC CRL-1658) mouse embryonic fibroblasts were grown in Dulbecco’s modified Eagle’s medium (DMEM) supplemented with 2 mM glutamine, 10 % foetal bovine serum and a 1 % antibiotic-antimycotic solution at 37 °C in a humidified atmosphere with 5 % CO2.
NIH/3T3 and BF-2 cells were seeded in 96-well plates at a density of 1 × 10^4 or 2 × 10^4 cells per well, respectively. After 24 h of incubation at an appropriate temperature, cells were exposed to betulin at the concentrations mentioned above for 24, 48 and 72 h. Control (untreated) cells served as the negative control and a reference point. Triton X-100 treated cells served as the positive internal control in MTT, NRU and LDH assays. Due to the specific character of SRB assay, there was no positive control in this test. After 24, 48 and 72 h of treatment, the four different cytotoxicity assays were performed. All experiments were repeated three times.
The MTT assay is used to estimate mitochondrial damage, since it determines the activity of mitochondrial enzymes. These enzymes reduce the water-soluble tetrazolium dye MTT to insoluble purple formazan, which accumulates inside viable cells.
The MTT assay was conducted using the protocol described by Mosmann, with some modifications described in our previous article.
The MTT assay was used to determine the cytotoxicity of both betulin and the vehicle (DMSO).
All experiments were repeated three times. […] Statistical analyses were performed using GraphPad Prism software (GraphPad Software, USA). Data were subjected to one-way analysis of variance (ANOVA). Dunnett’s posttest was used to determine differences between control and betulin-exposed cells at the same time points. Differences between the two cell lines at the same time points were determined using Student’s t-test. The 50 % cytotoxic concentrations (CC50, defined as the concentration of the compound that reduced cell viability by 50 %) were calculated using the Quest Graph™ ED50 Calculator (AAT Bioquest, Inc.).

BF-2 cells = test: MTT assay (mitochondrial activity), fish fibroblasts; format: cell-based, bluegill
Method: BF-2 (ATCC CCL-91) bluegill caudal trunk fibroblasts were grown in minimum essential medium (Eagle, EBSS) supplemented with 1 % nonessential amino acids (NEAAs), 10 % foetal bovine serum and 1 % antibiotic-antimycotic solution at 23 °C in a humidified atmosphere with 5 % CO2.
All experiments were repeated three times.

[1] = test system: murine Balb/3T3 fibroblasts; design: method as in PMID 16112835; conditions: Balb/3T3, MTT assay; cited from earlier work
[2] = test system: GSF3.2 goat skin fibroblasts; design: method as in earlier work; conditions: GSF3.2, trypan blue; cited from earlier work

C[S+](C)[O-] [DMSO, Dimethyl sulfoxide]
CC50 DMSO (MTT) 24 h (NIH/3T3 cells; NIH/3T3, 24 h, mean ± SD, n = 3): 2.989 ± 0.159%
CC50 DMSO (MTT) 48 h (NIH/3T3 cells; NIH/3T3, 48 h, mean ± SD, n = 3): 2.374 ± 0.395%
CC50 DMSO (MTT) 72 h (NIH/3T3 cells; NIH/3T3, 72 h, mean ± SD, n = 3): 1.635% and 1.635 ± 0.423%
maximum tolerable DMSO concentration (NIH/3T3 cells; NIH/3T3, concentration at which viability exceeded 90 % throughout the experiment): 0.625%
DMSO concentration with absence of any measurable activity of mitochondria (NIH/3T3 cells; murine fibroblasts, MTT): 10%
CC50 DMSO (MTT) 24 h (BF-2 cells; BF-2, 24 h, mean ± SD, n = 3): 5.031 ± 0.423%
CC50 DMSO (MTT) 48 h (BF-2 cells; BF-2, 48 h, mean ± SD, n = 3): 4.434 ± 0.717%
CC50 DMSO (MTT) 72 h (BF-2 cells; BF-2, 72 h, mean ± SD, n = 3): 4.794% and 4.794 ± 0.337%
maximum tolerable DMSO concentration (BF-2 cells; BF-2, concentration at which viability exceeded 90 % throughout the experiment): 1.25%
DMSO concentration with absence of any measurable activity of mitochondria (BF-2 cells; fish fibroblasts, MTT): 20%
IC50 of DMSO [1]: 2.75%
DMSO concentrations giving significant increase in the number of live cells [2]: less than 0.1%
